Measured values published in PubChem BioAssay (NCI).
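GI50 marks 50% less growth. TGI: total growth inhibition.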

Columns and labels:
Assay in all cases: inhibition of tumour cell growth, NCI panel, 384-well format
SW-620 colon = tested on: SW-620 colon
HCT-15 colon = tested on: HCT-15 colon
A549 NSCLC = tested on: A549 NSCLC
IGROV1 ovarian = tested on: IGROV1 ovarian
PC-3 prostate = tested on: PC-3 prostate
SNB-19 CNS = tested on: SNB-19 CNS
SNB-75 CNS = tested on: SNB-75 CNS
SF-268 CNS = tested on: SF-268 CNS
786-0 renal = tested on: 786-0 renal
EKVX NSCLC = tested on: EKVX NSCLC
K-562 leukemia = tested on: K-562 leukemia
M14 melanoma = tested on: M14 melanoma
UO-31 renal = tested on: UO-31 renal
SF-295 CNS = tested on: SF-295 CNS
MCF7 breast = tested on: MCF7 breast
TK-10 renal = tested on: TK-10 renal
OVCAR-5 ovarian = tested on: OVCAR-5 ovarian
OVCAR-4 ovarian = tested on: OVCAR-4 ovarian
SK-MEL-5 melanoma = tested on: SK-MEL-5 melanoma
CAKI-1 renal = tested on: CAKI-1 renal
SK-OV-3 ovarian = tested on: SK-OV-3 ovarian
RPMI-8226 leukemia = tested on: RPMI-8226 leukemia
SK-MEL-28 melanoma = tested on: SK-MEL-28 melanoma
MDA-MB-231 breast = tested on: MDA-MB-231 breast
SR leukemia = tested on: SR leukemia
OVCAR-3 ovarian = tested on: OVCAR-3 ovarian
UACC-62 melanoma = tested on: UACC-62 melanoma
NCI-H460 NSCLC = tested on: NCI-H460 NSCLC
MDA-MB-468 breast = tested on: MDA-MB-468 breast
LOX IMVI melanoma = tested on: LOX IMVI melanoma
BT-549 breast = tested on: BT-549 breast
HOP-62 NSCLC = tested on: HOP-62 NSCLC
NCI-H322M lung = tested on: NCI-H322M lung
UACC-257 melanoma = tested on: UACC-257 melanoma
NCI/ADR-RES ovarian = tested on: NCI/ADR-RES ovarian
U251 glioblastoma = tested on: U251 glioblastoma
MOLT-4 leukemia = tested on: MOLT-4 leukemia
MALME-3M melanoma = tested on: MALME-3M melanoma
HCC-2998 colon = tested on: HCC-2998 colon
ACHN renal = tested on: ACHN renal
HT29 colon = tested on: HT29 colon
NCI-H522 lung = tested on: NCI-H522 lung
HS 578T breast = tested on: HS 578T breast
HOP-92 NSCLC = tested on: HOP-92 NSCLC
T-47D breast = tested on: T-47D breast
NCI-H226 lung = tested on: NCI-H226 lung
NCI-H23 lung = tested on: NCI-H23 lung
CCRF-CEM leukemia = tested on: CCRF-CEM leukemia
RXF 393 renal = tested on: RXF 393 renal
OVCAR-8 ovarian = tested on: OVCAR-8 ovarian
SN12C renal = tested on: SN12C renal
KM12 colon = tested on: KM12 colon
A498 renal = tested on: A498 renal
DU-145 prostate = tested on: DU-145 prostate
MDA-MB-435 melanoma = tested on: MDA-MB-435 melanoma
SF-539 CNS = tested on: SF-539 CNS
COLO 205 colon = tested on: COLO 205 colon
HL-60(TB) leukemia = tested on: HL-60(TB) leukemia

Molecule `O=C(NCC(F)(F)F)Nc1cccc(-c2cnc3cc(-c4ccc(F)cc4)ccn23)c1` has a GI50 (SW-620 colon) of 433 nM, a TGI (SW-620 colon) of 10500 nM and a GI50 (HCT-15 colon) of 358 nM. It also gave a TGI (HCT-15 colon) of 1610 nM, a GI50 (A549 NSCLC) of 1080 nM and a TGI (A549 NSCLC) of 12900 nM. For the same molecule, the GI50 (IGROV1 ovarian) was 1400 nM, the TGI (IGROV1 ovarian) was 10500 nM and the GI50 (PC-3 prostate) was 2300 nM. The TGI (PC-3 prostate) was 10800 nM, the GI50 (SNB-19 CNS) was 1460 nM and the TGI (SNB-19 CNS) was 6950 nM. It also gave a GI50 (SNB-75 CNS) of 376 nM, a TGI (SNB-75 CNS) of 2090 nM and a GI50 (SF-268 CNS) of 1810 nM. For the same molecule, the TGI (SF-268 CNS) was 9050 nM, the GI50 ([…]-0 renal) was 1080 nM and the TGI (786-0 renal) was 5810 nM. It also gave a GI50 (EKVX NSCLC) of 1900 nM, a TGI (EKVX NSCLC) of 16800 nM and a GI50 (K-562 leukemia) of 362 nM. The TGI (K-562 leukemia) was 1200 nM, the GI50 (M14 melanoma) was 569 nM and the TGI (M14 melanoma) was 5670 nM. For the same molecule, the GI50 (UO-31 renal) was 4680 nM, the TGI (UO-31 renal) was 19500 nM and the GI50 (SF-295 CNS) was 1130 nM. The TGI (SF-295 CNS) was 4390 nM, the GI50 (MCF7 breast) was 804 nM and the TGI (MCF7 breast) was 12500 nM. For the same molecule, the GI50 (TK-10 renal) was 2210 nM, the TGI (TK-10 renal) was 13100 nM and the GI50 (OVCAR-5 ovarian) was 4040 nM. For the same molecule, the TGI (OVCAR-5 ovarian) was 25500 nM, the GI50 (OVCAR-4 ovarian) was 571 nM and the TGI (OVCAR-4 ovarian) was 5640 nM. For the same molecule, the GI50 (SK-MEL-5 melanoma) was 444 nM, the TGI (SK-MEL-5 melanoma) was 9920 nM and the GI50 (CAKI-1 renal) was 1110 nM. For the same molecule, the TGI (CAKI-1 renal) was 12500 nM, the GI50 (SK-OV-3 ovarian) was 631 nM and the TGI (SK-OV-3 ovarian) was 7870 nM. It also gave a GI50 (RPMI-8226 leukemia) of 575 nM, a TGI (RPMI-8226 leukemia) of 1830 nM and a GI50 (SK-MEL-28 melanoma) of 2320 nM. For the same molecule, the TGI (SK-MEL-28 melanoma) was 17900 nM, the GI50 (MDA-MB-231 breast) was 650 nM and the TGI (MDA-MB-231 breast) was 19300 nM. It also gave a GI50 (SR leukemia) of 148 nM, a TGI (SR leukemia) of 309 nM and a GI50 (OVCAR-3 ovarian) of 484 nM. The TGI (OVCAR-3 ovarian) was 2250 nM, the GI50 (UACC-62 melanoma) was 559 nM and the TGI (UACC-62 melanoma) was 12400 nM. The GI50 (NCI-H460 NSCLC) was 408 nM, the TGI (NCI-H460 NSCLC) was 10400 nM and the GI50 (MDA-MB-468 breast) was 250 nM. The TGI (MDA-MB-468 breast) was 568 nM, the GI50 (LOX IMVI melanoma) was 741 nM and the TGI (LOX IMVI melanoma) was 8310 nM. It also gave a GI50 (BT-549 breast) of 324 nM, a TGI (BT-549 breast) of 2130 nM and a GI50 (HOP-62 NSCLC) of 688 nM. The TGI (HOP-62 NSCLC) was 11000 nM, the GI50 (NCI-H322M lung) was 3680 nM and the TGI (NCI-H322M lung) was 21200 nM. It also gave a GI50 (UACC-257 melanoma) of 1850 nM, a TGI (UACC-257 melanoma) of 14600 nM and a GI50 (NCI/ADR-RES ovarian) of 1510 nM. It also gave a TGI (NCI/ADR-RES ovarian) of 3730 nM, a GI50 (U251 glioblastoma) of 1390 nM and a TGI (U251 glioblastoma) of 12200 nM. It also gave a GI50 (MOLT-4 leukemia) of 219 nM, a TGI (MOLT-4 leukemia) of 391 nM and a GI50 (MALME-3M melanoma) of 498 nM. The TGI (MALME-3M melanoma) was 14500 nM, the GI50 (HCC-2998 colon) was 705 nM and the TGI (HCC-2998 colon) was 9270 nM. It also gave a GI50 (ACHN renal) of 2790 nM, a TGI (ACHN renal) of 12900 nM and a GI50 (HT29 colon) of 367 nM. The TGI (HT29 colon) was 1570 nM, the GI50 (NCI-H522 lung) was 292 nM and the TGI (NCI-H522 lung) was 899 nM. The GI50 (HS 578T breast) was 655 nM, the TGI (HS 578T breast) was 2250 nM and the GI50 (HOP-92 NSCLC) was 1710 nM. The TGI (HOP-92 NSCLC) was 8880 nM, the GI50 (T-47D breast) was 862 nM and the TGI (T-47D breast) was 7450 nM. For the same molecule, the GI50 (NCI-H226 lung) was 1030 nM, the TGI (NCI-H226 lung) was 8570 nM and the GI50 (NCI-H23 lung) was 1020 nM. For the same molecule, the TGI (NCI-H23 lung) was 3560 nM, the GI50 (CCRF-CEM leukemia) was 734 nM and the TGI (CCRF-CEM leukemia) was 2030 nM. The GI50 (RXF 393 renal) was 1490 nM, the TGI (RXF 393 renal) was 7290 nM and the GI50 (OVCAR-8 ovarian) was 2480 nM. The TGI (OVCAR-8 ovarian) was 12100 nM, the GI50 (SN12C renal) was 756 nM and the TGI (SN12C renal) was 4530 nM. The GI50 (KM12 colon) was 400 nM, the TGI (KM12 colon) was 11900 nM and the GI50 (A498 renal) was 769 nM. It also gave a TGI (A498 renal) of 10300 nM, a GI50 (DU-145 prostate) of 3130 nM and a TGI (DU-145 prostate) of 18400 nM. It also gave a GI50 (MDA-MB-435 melanoma) of 210 nM, a TGI (MDA-MB-435 melanoma) of 457 nM and a GI50 (SF-539 CNS) of 832 nM. It also gave a TGI (SF-539 CNS) of 2540 nM, a GI50 (COLO 205 colon) of 451 nM and a TGI (COLO 205 colon) of 3530 nM. It also gave a GI50 (HL-60(TB) leukemia) of 321 nM and a TGI (HL-60(TB) leukemia) of 853 nM.
